US4103085A, “7-(Syn-α-alkoxy-iminofurylacetamido-3-(2-carboxyalkyl-2,3-dihy dro-s-triazolo[4,3-b]pyridazin-3-on-6-ylthiomethyl)-3-cephem-4-carboxylic acids” (Bristol-Myers Company, priority 1977, dated 1978)
Values after ≈ are worked out from the molar mass of the structure shown. Where a name gives a salt, the structure may show the parent alone.

Experiments:
Format in all cases: cell-based
H. influenzae (7) = test: In vitro activity, Mueller-Hinton agar, serial dilution method (Table 1); settings: Haemophilus influenzae, read-out: Geometric Mean of MIC
S. viridans (5) = test: as above; settings: Streptococcus viridans, read-out: Geometric Mean of MIC
S. aureus (3 strains) = test: as above; settings: Staphylococcus aureus, read-out: Geometric Mean of MIC
D. pneumoniae (5) = test: as above; settings: Streptococcus pneumoniae, read-out: Geometric Mean of MIC
E. coli (7) = test: as above; settings: Escherichia coli, read-out: Geometric Mean of MIC
N. gonorrhoeae (5) = test: as above; settings: Neisseria gonorrhoeae, read-out: Geometric Mean of MIC
[1] = tested on: B. anthracis (1) S. pyrogenes (5); test: microbe, parasite or virus in culture; settings: Bacillus anthracis, read-out: Geometric Mean of MIC
Proteus (6) = test: In vitro activity, Mueller-Hinton agar, serial dilution method (Table 1); settings: read-out: Geometric Mean of MIC
P. aeruginosa = test: MICs in Mueller-Hinton agar (Table 2); settings: Pseudomonas aeruginosa, 2 strains, read-out: Geometric Means of MIC's
Source text: (§1) Geometric Means of MIC's Against 3 Strains
(§2) of S. aureus and 27 Strains of Gram-negative Bacteria
(§3) (mcg./ml., Mueller-Hinton Agar)

S. aureus = test: MICs in Mueller-Hinton agar (Table 2); settings: Staphylococcus aureus, 1 strain, read-out: Geometric Means of MIC's
Source text: as §1, §2, §3

K. pneumoniae = test: MICs in Mueller-Hinton agar (Table 2); settings: Klebsiella pneumoniae, 4 strains, read-out: Geometric Means of MIC's
Source text: as §1, §2, §3

E. coli = test: MICs in Mueller-Hinton agar (Table 2); settings: Escherichia coli, 6 strains, read-out: Geometric Means of MIC's
Source text: as §1, §2, §3

Shigella, Salmonella = test: MICs in Mueller-Hinton agar (Table 2); settings: 5 strains, read-out: Geometric Means of MIC's
Source text: as §1, §2, §3

E. cloacae = test: MICs in Mueller-Hinton agar (Table 2); settings: Enterobacter cloacae, 1 strain, read-out: Geometric Means of MIC's
Source text: as §1, §2, §3

S. marcescens [2] = test: MICs in Mueller-Hinton agar (Table 2); settings: Serratia marcescens, 1 strain, read-out: Geometric Means of MIC's
Source text: as §1, §2, §3

E. coli, Cephalosporin-R = test: MICs in Mueller-Hinton agar (Table 2); settings: Escherichia coli, 1 strain, read-out: Geometric Means of MIC's
Source text: as §1, §2, §3

Indole (-) Proteus = test: MICs in Mueller-Hinton agar (Table 2); settings: 2 strains, read-out: Geometric Means of MIC's
Source text: as §1, §2, §3

Indole(+) Proteus = test: MICs in Mueller-Hinton agar (Table 2); settings: 3 strains, read-out: Geometric Means of MIC's
Source text: as §1, §2, §3

S. aureus, Penicillin-R = test: MICs in Mueller-Hinton agar (Table 2); settings: Staphylococcus aureus, 2 strains, read-out: Geometric Means of MIC's
Source text: as §1, §2, §3

[3] = tested on: Indole(+) Proteus, Cephalosporin-R; test: MICs in Mueller-Hinton agar (Table 2); settings: 2 strains, read-out: Geometric Means of MIC's
Source text: as §1, §2, §3

S. marcescens [4] = test: MICs against 18 strains of S. marcescens (Table 3); settings: Serratia marcescens, read-out: Geometric Means of MIC's
Source text: Geometric Means of MIC's Against 18 Strains

N. meningitidis (5) = test: In vitro activity, Mueller-Hinton agar, serial dilution method (Table 1); settings: Neisseria meningitidis, read-out: Geometric Mean of MIC
Kl. pneumoniae (4) = test: as above; settings: Klebsiella pneumoniae, read-out: Geometric Mean of MIC
Source text: (§4) In vitro Activity Using Mueller-Hinton Agar
(§5) By the Serial Dilution Method

[5] = tested on: Shig. (3), Serr. (1) (1), Sal. (2); test: as above; settings: read-out: Geometric Mean of MIC
Source text: as §4, §5

SMILES | MIC (H. influenzae (7)) [µg/mL] | MIC (S. viridans (5)) [µg/mL] | MIC (S. aureus (3 strains)) [µg/mL] | MIC (D. pneumoniae (5)) [µg/mL] | MIC (E. coli (7)) [µg/mL] | MIC (N. gonorrhoeae (5)) [µg/mL] | MIC [1] [µg/mL] | MIC (Proteus (6)) [µg/mL] | MIC (P. aeruginosa) [µg/mL] | MIC (K. pneumoniae) [µg/mL] | MIC (E. coli) [µg/mL] | MIC (Shigella, Salmonella) [µg/mL] | MIC (E. cloacae) [µg/mL] | MIC (S. marcescens [2]) [µg/mL] | MIC (E. coli, Cephalosporin-R) [µg/mL] | MIC (Indole (-) Proteus) [µg/mL] | MIC (Indole(+) Proteus) [µg/mL] | MIC (N. meningitidis (5)) [µg/mL] | MIC (Kl. pneumoniae (4)) [µg/mL] | MIC [5] [µg/mL] | further results
CO/N=C(\C(=O)N[C@@H]1C(=O)N2C(C(=O)O)=C(CSc3ccc4nn(CC(=O)O)c(=O)n4n3)CS[C@H]12)c1ccco1 [BB-S511, 7-[(2Z)-2-Methoxyimino(fur-2-yl)acetamido]-3-(2-carboxymethyl-2,3-dihydro-s-triazolo[4,3-b]pyridazin-3-on-6-ylthiomethyl)-3-cephem-4-carboxylic Acid Disodium Salt] | 0.64 | 0.15 | 1.97 | 0.037 | 0.58 | 1.36 | 0.032 | 0.021 | > 100 | 0.7 | 0.2 | 0.3 | 3.1 | 25 | 6.3 | 0.1 | 0.05 | 2.37 | 0.47 | 1.11 | MIC (S. aureus): 1.6 µg/mL; MIC (S. aureus, Penicillin-R): 0.6 µg/mL; MIC [3]: 6.3 µg/mL; MIC (S. marcescens [4]): 5.4 µg/mL
CO/N=C(\C(=O)N[C@@H]1C(=O)N2C(C(=O)O)=C(CSc3ccc4nn(CCC(=O)O)c(=O)n4n3)CS[C@H]12)c1ccco1 [BB-S526, 7-[(2Z)-2-Methoxyimino(fur-2-yl)acetamido]-3-[2-(2-carboxyethyl)-2,3-dihydro-s-triazolo[4,3-b]pyridazin-3-on-6-ylthiomethyl]-3-cephem-4-carboxylic Acid Sodium Salt] | 0.71 | 0.4 | 1.6 | 0.056 | 0.78 | 1.6 | 0.032 | 0.061 |  |  |  |  |  |  |  |  |  | 3.6 | 0.93 | 2.41 | 
NCc1ccccc1CC(=O)N[C@@H]1C(=O)N2C(C(=O)O)=C(CSc3nnnn3CC(=O)O)CS[C@H]12 [BL-S786, 7-[α-(2-aminomethylphenyl)acetamido]-3-[(1-carboxymethyltetrazol-5-lthio)methyl]-3-cephem-4-carboxylic acid, reference compound] |  |  |  |  |  |  |  |  | > 100 | 0.3 (≈ 0.577 µM) | 0.2 (≈ 0.385 µM) | 0.5 (≈ 0.962 µM) | 1.6 (≈ 3.08 µM) | > 100 | 12.5 (≈ 24.1 µM) | 0.2 (≈ 0.385 µM) | 0.3 (≈ 0.577 µM) |  |  |  | MIC (S. aureus, Penicillin-R): 1.6 µg/mL (≈ 3.08 µM); MIC [3]: 50.1 µg/mL (≈ 96.4 µM); MIC (S. marcescens [4]): 85.9 µg/mL (≈ 165 µM)
CO/N=C(\C(=O)N[C@@H]1C(=O)N2C(C(=O)O)=C(COC(N)=O)CS[C@H]12)c1ccco1 [Cefuroxime, sodium 6R,7R-3-carbamoyloxymethyl-7-(2Z)-2-methoxyimino(fur-2-yl)acetamidoceph-3em-4-carboxylate, reference compound] | 1.16 | 0.1 | 1.24 | 0.0125 | 1.28 | 0.4 | 0.025 | 0.88 |  |  |  |  |  |  |  |  |  | 1.6 | 3.1 | 4.06 | 
